Results published in patent publication US8124617B2, “Imidazopyridine compounds” (Takeda San Diego, Inc., priority 2005, dated 2012).

Experiments:
[1] = molecular target: T1, GST-hLGK1 (human hepatic GK) (Homo sapiens, UniProt P35557); assay: Measurement of GK activation value (Mant-ATP/Mant-ADP capillary electrophoresis, reaction rate); format: biochemical; details: concentration necessary for activation of 50% of the maximum activity value; 37° C., 60 min
T1 construct: made in house; host or cells: Escherichia coli BL21 (pGEX6P-2/hLGK1)
T1 sequence (P35557 1-464 isoform P35557-3): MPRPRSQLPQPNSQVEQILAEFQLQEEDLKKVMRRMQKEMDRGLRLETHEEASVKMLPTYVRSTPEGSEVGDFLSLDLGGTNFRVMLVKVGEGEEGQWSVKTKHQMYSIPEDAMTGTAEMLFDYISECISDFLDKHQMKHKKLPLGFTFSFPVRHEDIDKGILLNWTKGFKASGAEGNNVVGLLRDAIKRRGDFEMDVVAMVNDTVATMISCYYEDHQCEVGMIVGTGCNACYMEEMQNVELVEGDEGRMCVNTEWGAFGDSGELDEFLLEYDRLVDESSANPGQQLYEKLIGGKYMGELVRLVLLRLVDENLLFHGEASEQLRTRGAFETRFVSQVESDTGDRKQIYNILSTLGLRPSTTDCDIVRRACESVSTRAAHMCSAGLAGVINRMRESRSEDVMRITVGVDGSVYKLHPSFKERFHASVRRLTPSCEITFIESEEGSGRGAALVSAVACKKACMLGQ
Protocol: A plasmid DNA for expression of protein (GST-hLGK1) containing GST (Glutathione S-transferase) added to human hepatic GK amino terminal in Escherichia coli was prepared as follows.
BL21 strain (Stratagene) transformed with pGEX6P-2/hLGK1 obtained in Reference Example 1A was cultured with shaking in a 200 ml Erlenmeyer flask containing a 100 μg/ml ampicillin-containing LB medium (50 ml) at 37° C. for 14 hr. The culture medium (25 ml) was diluted with 100 μg/ml ampicillin-containing LB medium (225 ml), and further cultured with shaking in a 1 L Erlenmeyer flask at 37° C. for 1 hr. After cooling on ice the Erlenmeyer flask after culture, 100 mM Isopropyl-Thio-β-D-Galactopyranoside (IPTG) (125 μL) was added (final concentration 50 μM), and the mixture was cultured at 17° C. for 20 hr. After centrifugation of the culture medium, the obtained cells were ultrasonicated, and the object protein (GST-hLGK1) was purified from the supernatant using Glutathione Sepharose 4B (Amersham Biosciences).
A 50% solution (5 μL) of the test compound in dimethyl sulfoxide was added to each well of a 384 well black plate (Nalge Nunc). Then, 35 μL of a liquid obtained by diluting GST-hLGK1 obtained in Reference Example 2A with a measurement buffer (50 mM HEPES (pH 7.4), containing 200 mM KCl, 5 mM MgCl2, 2.5 mM DTT and 50 μM 2′-(or-3′)-O—(N-methylanthraniloyl)adenosine 5′-triphosphate (Mant-ATP) (Jena Bioscience)) was added to each well to 6 μg/mL.
Each well was stood at 37° C. for 10 min, and a 25 mM D-glucose solution (10 μL) was added to start the reaction.
Each well after the start of the reaction was stood at 37° C. for 60 min, and the reaction was quenched by adding 25 μL of a reaction quenching solution (200 mM HEPES (pH 7.4), containing 20 mM MgCl2, 200 mM EDTA, 0.03% Triton-X 100, 0.3% Coating 3 reagent (Caliper Life Sciences)).
Mant-ATP (substrate) and Mant-ADP (reaction resultant product) were separated from each well after quenching the reaction, with a microchip type capillary electrophoresis apparatus 250HTS (Caliper Life Sciences). The reaction rate [(peak height of reaction resultant product)/(peak height of reaction resultant product+peak height of substrate)×100(%)] was calculated from the ratio of the substrate peak height and the reaction resultant product peak height, which were obtained by fluorescence detection (excitation wavelength 355 nm, measurement wavelength 460 nm), and used as an index of the GK activity.
For the control, the reaction rate was calculated in the same manner as in the above except that “50% dimethyl sulfoxide solution” was used instead of the “50% solution of the test compound in dimethyl sulfoxide”.
A percentage obtained by dividing the reaction rate of the well added with the test compound (test compound addition group) by the reaction rate of the well added with a 50% dimethyl sulfoxide solution alone (control group) was taken as the GK activation value by the test compound, and the concentration of the test compound necessary for the activation of 50% of the maximum activity value is shown as an EC50 value.

melting point [°C] | EC50 [1] [nM] | Structure (SMILES)
101 to 103 |  | CC(C)CNCc1cnc2[nH]c(-c3cc(OCc4ccccc4)ccc3OC(C)C)nc2c1 [Example 78, N-({2-[5-(benzyloxy)-2-isopropoxyphenyl]-3H-imidazo[4,5-b]pyridin-6-yl}methyl)-2-methylpropan-1-amine]
 | 400 | Cc1ccccc1-c1cnc2[nH]c(-c3cc(OCc4ccccc4)ccc3OC(C)C)nc2c1 [Example 47, 2-[5-(benzyloxy)-2-isopropoxyphenyl]-6-(2-methylphenyl)-3H-imidazo[4,5-b]pyridine]
167 to 168 | 730 | CC(C)Oc1ccc(OCc2ccccc2)cc1-c1nc2cc(CO)cnc2[nH]1 [Example 76, {2-[5-(benzyloxy)-2-isopropoxyphenyl]-3H-imidazo[4,5-b]pyridin-6-yl}methanol]
138 to 140 |  | CCOC(=O)c1cnc2[nH]c(-c3cc(OCc4ccccc4)ccc3OC(C)C)nc2c1 [Example 74, ethyl 2-[5-(benzyloxy)-2-isopropoxyphenyl]-3H-imidazo[4,5-b]pyridine-6-carboxylate]
 | 250 | COc1ccc(-c2cnc3[nH]c(-c4ccc(OCc5ccccc5)cc4OC(C)C)nc3c2)cc1 [Example 51, 2-[4-(benzyloxy)-2-isopropoxyphenyl]-6-(4-methoxyphenyl)-3H-imidazo[4,5-b]pyridine]
 | 2100 | COc1ccc(OCc2ccccc2)cc1-c1nc2cccnc2[nH]1 [Example 5, 2-(5-(benzyloxy)-2-methoxyphenyl)-3H-imidazo[4,5-b]pyridine]
92 to 94 |  | CC(C)Oc1ccc(OCc2ccccc2)cc1-c1nc2cc(CNCc3ccccc3)cnc2[nH]1 [Example 79, N-benzyl-1-{2-[5-(benzyloxy)-2-isopropoxyphenyl]-3H-imidazo[4,5-b]pyridin-6-yl}methaneamine]
69 to 71 | 3700 | COC(=O)CNCc1cnc2[nH]c(-c3cc(OCc4ccccc4)ccc3OC(C)C)nc2c1 [Example 82, methyl N-({2-[5-(benzyloxy)-2-isopropoxyphenyl]-3H-imidazo[4,5-b]pyridin-6-yl}methyl)glycinate]
110 to 112 | 1600 | CC(C)Oc1cc(OCCCc2cccnc2)cc(-c2nc3cccnc3[nH]2)c1 [Example 4, 2-[3-isopropoxy-5-(3-pyridin-3-ylpropoxy)phenyl]-3H-imidazo[4,5-b]pyridine]
82 to 83 | 150 | CC(C)Oc1cc(OCCc2ccsc2)cc(-c2nc3cccnc3[nH]2)c1 [Example 3, 2-{3-isopropoxy-5-[2-(3-thienyl)ethoxy]phenyl}-3H-imidazo[4,5-b]pyridine]
 | 240 | COc1ccccc1-c1cnc2[nH]c(-c3cc(OCc4ccccc4)ccc3OC(C)C)nc2c1 [Example 48, 2-[5-(benzyloxy)-2-isopropoxyphenyl]-6-(2-methoxyphenyl)-3H-imidazo[4,5-b]pyridine]
67 to 68 | 820 | CC(C)Oc1ccc(OCc2ccccc2)cc1-c1nc2cc(CNCCOc3ccccc3)cnc2[nH]1 [Example 80, N-({2-[5-(benzyloxy)-2-isopropoxyphenyl]-3H-imidazo[4,5-b]pyridin-6-yl}methyl)-2-phenoxyethaneamine]
170 to 171 |  | CC(C)Oc1ccc(OCc2ccccc2)cc1-c1nc2cc(C=O)cnc2[nH]1 [Example 77, 2-[5-(benzyloxy)-2-isopropoxyphenyl]-3H-imidazo[4,5-b]pyridine-6-carbaldehyde]
214 to 215 |  | CC(C)Oc1ccc(OCc2ccccc2)cc1-c1nc2ccc(C#N)nc2[nH]1 [Example 84, 2-[5-(benzyloxy)-2-isopropoxyphenyl]-3H-imidazo[4,5-b]pyridine-5-carbonitrile]
80 to 81 |  | COCCNCc1cnc2[nH]c(-c3cc(OCc4ccccc4)ccc3OC(C)C)nc2c1 [Example 81, N-({2-[5-(benzyloxy)-2-isopropoxyphenyl]-3H-imidazo[4,5-b]pyridin-6-yl}methyl)-2-methoxyethaneamine]
 | 280 | COc1ccc(-c2cnc3[nH]c(-c4cc(OCc5ccccc5)ccc4OC(C)C)nc3c2)c(OC)c1 [Example 45, 2-[5-(benzyloxy)-2-isopropoxyphenyl]-6-(2,4-dimethoxyphenyl)-3H-imidazo[4,5-b]pyridine]
 | 440 | CC(C)Oc1ccc(OCc2ccccc2)cc1-c1nc2cc(-c3cccnc3)cnc2[nH]1 [Example 40, 2-[5-(benzyloxy)-2-isopropoxyphenyl]-6-pyridin-3-yl-3H-imidazo[4,5-b]pyridine]
167 to 168 |  | CC(C)Oc1ccc(OCc2ccccc2)cc1-c1nc2ccc(CO)nc2[nH]1 [Example 87, {2-[5-(benzyloxy)-2-isopropoxyphenyl]-3H-imidazo[4,5-b]pyridin-5-yl}methanol]
182 to 184 |  | CC(C)Oc1ccc(OCc2ccccc2)cc1-c1nc2cc(CNCC(=O)O)cnc2[nH]1 [Example 83, N-({2-[5-(benzyloxy)-2-isopropoxyphenyl]-3H-imidazo[4,5-b]pyridin-6-yl}methyl)glycine]
 | 150 | CC(C)Oc1cc(OCc2ccccc2)ccc1-c1nc2cc(-c3cccc(F)c3)cnc2[nH]1 [Example 73, 2-[4-(benzyloxy)-2-isopropoxyphenyl]-6-(3-fluorophenyl)-3H-imidazo[4,5-b]pyridine]
 | 200 | CC(C)Oc1cc(OCc2ccccc2)ccc1-c1nc2cc(-c3ccccc3F)cnc2[nH]1 [Example 72, 2-[4-(benzyloxy)-2-isopropoxyphenyl]-6-(2-fluorophenyl)-3H-imidazo[4,5-b]pyridine]
 | 1100 | CC(C)Oc1cc(OCc2ccccc2)cc(-c2nc3cc(-c4cccnc4)cnc3[nH]2)c1 [Example 61, 2-[3-(benzyloxy)-5-isopropoxyphenyl]-6-pyridin-3-yl-3H-imidazo[4,5-b]pyridine]
136 to 137 | 130 | CC(C)Oc1cc(OCc2ccccc2)cc(-c2nc3cccnc3[nH]2)c1 [Example 2, 2-[3-(benzyloxy)-5-isopropoxyphenyl]-3H-imidazo[4,5-b]pyridine]
 | 290 | CC(C)Oc1cc(OCc2ccccc2)ccc1-c1nc2cc(-c3ccc(F)cc3)cnc2[nH]1 [Example 50, 2-[4-(benzyloxy)-2-isopropoxyphenyl]-6-(4-fluorophenyl)-3H-imidazo[4,5-b]pyridine]
